Test [1] deals with Cf-496-2. The experiment in a line: Dose response test, growth in 96-well plates. In kind it is cell-based, Chlorella fusca. Particulars: strain Cf-496-2; no growth, visual inspection.
In test [2] the test system is Cf-496-51. The test is described as follows: Dose response test, growth in 96-well plates. Conditions: strain Cf-496-51 (F275I); no growth, visual inspection. Format: cell-based, Chlorella fusca. The method, then: (§1) Dose response tests with B5U were set-up in 96-well, flat bottomed plates. 200 μl medium was used in each well. 2 μl of 6 day old culture was added to each well, then 2 μl of DMSO or dilution of test compound were added to respective wells. 2-fold dilutions starting at 100 ppm were used per well. Plates were incubated at 25° C., 50 μmol/m^2/s, 16 hour photoperiod.
(§2) This was assessed by a visual inspection of growth in the 96-well plate. The inhibitor concentration at which no growth is observed is then defined as the LD.

The subject of test [3] is Cf-496-65. The test is described as follows: Dose response test, growth in 96-well plates. In kind it is cell-based, Chlorella fusca. Conditions: strain Cf-496-65; no growth, visual inspection. The method, then: as §1, §2
For test [4], the system named is Cf-496-82. The experiment in a line: Dose response test, growth in 96-well plates. Format: cell-based, Chlorella fusca. Conditions: strain Cf-496-82; no growth, visual inspection. The method, then:
as §1, §2

For test [5], the system named is Cf-496-85. The test is described as follows: Dose response test, growth in 96-well plates. Conditions: strain Cf-496-85; no growth, visual inspection. Format: cell-based, Chlorella fusca. The method, then: as §1, §2
Test [6] has as its system Cf-496-88. The experiment in a line: Dose response test, growth in 96-well plates. Particulars: strain Cf-496-88; no growth, visual inspection. Format: cell-based, Chlorella fusca. The method, then: as §1, §2
Test [7] has as its system Cf-496-47. The experiment in a line: Dose response test, growth in 96-well plates. Particulars: strain Cf-496-47; no growth, visual inspection. In kind it is cell-based, Chlorella fusca.
For test [8], the system named is Cf-496-75. The experiment in a line: Dose response test, growth in 96-well plates. Format: cell-based, Chlorella fusca. Conditions: strain Cf-496-75; no growth, visual inspection.
Test [9] concerns D4291 (WT Arabidopsis thaliana HST) containing tobacco plant. The test is described as follows: Herbicide damage score after spraying, Example 3. In kind it is in vivo. The method, then: (§3) In order to determine if the newly discovered mutations detailed in Example 1 confer resistance to HST inhibiting compounds when expressed in plants, GM tobacco lines are to be produced and tested with HST inhibiting compounds. Transgenic tobacco plants expressing the Arabidopsis HST gene with and without mutations were tested.
(§4) Populations of transgenic tobacco comprising 20-30 transgenic events per plant transformation constructs were generated as described in Example 2. These lines were clonally propagated and 1 clone per event was sprayed with 500, 100 or 50 g ai/ha of compound 1+0.2% Genapol X080 with a spray volume of 200 L/Ha (“g ai/ha” refers to grams of active compound per hectare).
(§5) Herbicidal damage was visually assessed across the population and a herbicide damage score given at 7 and 14 days. A score of 0 indicates no visible damage or stunting whereas a score of 100 indicates a complete death of the plant. 20 transgenic events (i.e. individual transgenic plants) from each GM tobacco line were transplanted to soil 1 week prior to spraying with HST inhibiting compounds. WT tobacco was included as a control.
(§6) The values in Tables 8 to 14 below refer to percentage of damage to the tested plants and show the damage scores for 20 populations of plants expressing either Arabidopsis WT HST gene (SEQ ID NO. 14), the Arabidopsis HST mutated gene according to SEQ ID NO. 27, the Arabidopsis HST mutated gene according to SEQ ID NO. 28, the Arabidopsis HST mutated gene according to SEQ ID NO. 29, the Arabidopsis HST mutated gene according to SEQ ID NO. 30, or the Arabidopsis HST mutated gene according to SEQ ID NO. 31. A control population of wild-type Samsun tobacco was also assessed for herbicide damage. […] However the mutated versions of the HST gene carrying the F276I, V277A, F280I or F280L mutations (SEQ ID NOs: 27, 28, 30 or 31) clearly display increased tolerance.

Test [10] relates to D4292 (F276I mutant Arabidopsis thaliana HST) containing tobacco plant. The experiment in a line: Herbicide damage score after spraying, Example 3. Format: in vivo. Particulars: T1 B5u 500 gai/ha, averaged across transgenic population. The method, then: as §3, §4, §5, §6
Test [11] has as its system D4293 (V277A mutant Arabidopsis thaliana HST) containing tobacco plant. The test is described as follows: Herbicide damage score after spraying, Example 3. Format: in vivo. Conditions: T1 B5u 500 gai/ha, averaged across transgenic population. The method, then: as §3, §4, §5, §6
Test [12] concerns D4294 (T278N mutant Arabidopsis thaliana HST) containing tobacco plant. The test is described as follows: Herbicide damage score after spraying, Example 3. In kind it is in vivo. Particulars: T1 B5u 500 gai/ha; D4294 T278N; averaged across transgenic population. The method, then:
as §3, §4, §5, §6

The subject of test [13] is D4295 (F280I mutant Arabidopsis thaliana HST) containing tobacco plant. The experiment in a line: Herbicide damage score after spraying, Example 3. Format: in vivo. Particulars: T1 B5u 500 gai/ha, averaged across transgenic population. The method, then:
as §3, §4, §5, §6

The test system of test [14] is WT tobacco. The experiment in a line: Herbicide damage score after spraying, Example 3. Conditions: T1 B5u 500 gai/ha; WT tobacco control; per plant. In kind it is in vivo. The method, then: as §3, §4, §5, §6

Each structure is given as a SMILES string. Several values for one entry are separate records, joined by “and”; a condition that tells them apart may be missing. Equal values may be shown once. Some results are limits rather than exact numbers.

Consider `Cc1nn(C)c(=O)c(-c2c(F)ccc(Cl)c2CCc2ccc(C(F)(F)F)cc2)c1OC(=O)C(C)C` [B5u, [5-[3-chloro-6-fluoro-2-[2-[4-(trifluoromethyl)phenyl]ethyl]phenyl]-1,3-dimethyl-6-oxo-pyridazin-4-yl]2-methylpropanoate], for which the “LD (lethal dose)” value in [1] is reported as 6.25 ppm; in [2], more than 100 ppm; in test [3], more than 100 ppm; in test [4], more than 100 ppm; in test [5], more than 100 ppm; in test [6] it was more than 100 ppm. The “LD (lethal dose)” value in [7] was more than 100 ppm; in test [8], 6.25 ppm. Further, the Average percentage damage was 55% in test [9] (T1 B5u 500 gai/ha, D4291, mutation n.a., averaged across transgenic population); 28% in test [10]; 22% in test [11]; 76% in test [12]; 35% in test [13]. Further, the tolerance to herbicide result in test [9] (overexpression of Arabidopsis HST gene (SEQ ID NO.14) in tobacco) is listed as “does not increase tolerance”. For the same compound, the percentage of damage in [14] was 95% and 90%.
